Data reported in patent US6849596B1, “Regulatory/unfolding peptides of ezrin” (priority 1999, dated 2005).
“Also recorded” adds a separate entry of the source.

Columns and labels:
[1] = test system: IgG serum antibody response to Ovalbumin; test: Adjuvant activity: IgG serum antibody response to Ovalbumin in mice; format: in vivo; settings: for IgG response recorded as OD: 50 micrograms Ovalbumin, two weeks, sera 1 to 100; for IgG response recorded as OD then rebased relative to 100 for each control: control = 100
Description: Adjuvant Activity of Hepreceptor Peptides Enhancing the IgG Serum Antibody Response to Ovalbumin in Mice
The IgG response in mice two weeks after an injection of 50 micrograms of Ovalbumin plus various concentrations of different hepreceptor peptides was determined. IgG response was measured by Optical Density (OD) of a 1 to 100 dilution of mouse sera in the presence of Ovalbumin.
IgG response recorded as OD
IgG response recorded as OD then data rebased relative to 100 for each control

[2] = test system: transplanted sarcoma of the uterus SM-322; test: Transplanted mouse sarcoma SM-322 model; format: in vivo, CBA mice; settings: for Percent decrease in tumour volume relative to control: SM-322
Source text: Anticancer Activity of Hepreceptor Peptides on the Growth of Transplanted Sarcoma of the Uterus SM-322 and on Cancer of the Uterine Cervix CUS-5 Performed in CBA Mice Using Rupe312 and Rupe414 as Examples Transplanted mouse sarcoma SM-322 model (endothelial tumour). Primary tumours of the uterus were induced in female mice using 1.2 dimethylhydrazine. A few primary tumours were transplanted into syngeneic mice. The first visible nodules started to appear at the point of transplation after 4 days. The life expectancy of the mice with transplanted tumours was 22-24 days. […] The tumours were introduced as a 0.5 ml of tumour suspension (1 g tumour per 10 ml of Igla medium) and ten mice used in each treatment group. […] The average percent decrease of tumour volume relative to the control group was recorded at three time points. The longevity of the mice in the treatment groups and control groups was compared and the histology of the tumours between control and treatment groups was compared.

activated macrophages = test: Induction of activated macrophages in mice (peritoneal exsudate); format: in vivo
Description: Groups of three mice (CDAxC57B1)F1 weighing 22-24 g were injected abdominally with each peptide solution of 1.0 microgram of peptide dissolved in 0.5 ml of physiological saline. After 24 hours the animals were killed using neck vertebrae dislocation and 5 ml of Hanks solution was injected into the abdomen. The abdomen was massaged for 30 seconds and then the peritoneal liquid was collected. The collected liquid was filtered using a nylon filter into siliconised tubes containing 1.5 mg/ml EDTA. The number of nucleus containing cells in […] of filtrate were then assessed under microscopic examination using a Nihon hemocytometer. The cells were pelleted by centrifugation for 5 minutes at 800 g, the pellet was resuspended in fetal calf serum, the cell suspension was dropped on to a glass microscope slide and dried then fixed in methanol and stained with Romanovski's colouring agent. Morphological analysis of the cells of the peritoneal exsudate were performed using an Opton optical microscope at 1600 magnifications. The number of lymphocytes, resting macrophages, activated macrophages, granulocytes and other cell types were assessed.

[3] = test system: human Peripheral Blood Mononuclear Cells; test: In vitro activation of human PBMC, tritiated thymidine incorporation; format: cell-based; settings: for incorporation of 3H thymidine: three days, Control 370
Description: Peripheral Blood Mononuclear Cells (PBMC) were separated from the peripheral blood of a […] donor using the standard method of fractionation in a ficoll gradient. The PBMC were suspended in culture medium containing RPMI1640 medium plus 10% fetal calf serum, 1 mM L-glutamin and antibiotics (BM). The cell suspension was placed in wells of a 96 hole microwell plate for cell cultivation, (100 microliters of suspension containing 100,000 cells per well). […] The negative control well contained BM but no peptide. The plate was incubated at 37° C. for three days then radioactive ^3H thymidine was added to a final concentration of 1 microcurie per ml. The incorporation of ^3H thymidine into the DNA of the cells was measured using a betacounter using standard procedures. The experiment was repeated twice and the results expressed as an average of the two experiments in radioactive counts per minute.

IL-8 = IL-8 production in human WBC; format: cell-based; settings: 48 hour incubation, without peptide 18900
Description: The suppressive effect of increasing concentrations of Rupe312, a Hepreceptor peptide, on the expression of IL-8 by human WBC after a 48 hour incubation at 37° C. was detected. IL-8 is a chemotactic factor that is produced in response to inflammatory stimulus which attracts and activates T cells, neutrophils, basophils, granulocytes but not monocyte/macrophages. The inhibition of IL-8 may play a role in the selective activity of Rupe 312 in activating monocytes macrophages. The measurement of IL-8 provides an assay for determining the activity of various Hepreceptor derived peptides.

[4] = test system: transplanted sarcoma of the uterus SM-322; test: Transplanted mouse sarcoma SM-322 model; format: in vivo, CBA mice; settings: control 12-16
[5] = IP injection 0.01 micrograms per mouse
[6] = IP injection 0.1 micrograms per mouse
[7] = IP injection 1 microgram per mouse
[8] = IP injection 10 micrograms per mouse

Sequence: KKRRETVERE (Hepreceptor peptide) [Rupe312]
- IgG response recorded as OD [1, 5]: 0.68 OD
- IgG response recorded as OD then rebased relative to 100 for each control [1, 5]: 99
- IgG response recorded as OD [1, 6]: 0.88 OD
- IgG response recorded as OD then rebased relative to 100 for each control [1, 6]: 128
- IgG response recorded as OD [1, 7]: 0.55 OD
- IgG response recorded as OD then rebased relative to 100 for each control [1, 7]: 80
- IgG response recorded as OD [1, 8]: 0.44 OD
- IgG response recorded as OD then rebased relative to 100 for each control [1, 8]: 64
- Percent decrease in tumour volume relative to control ([2]; 0.1 Microg/mouse IP twice weekly, Day 8): 61%
- Percent decrease in tumour volume relative to control ([2]; 0.1 Microg/mouse IP twice weekly, Day 12): 34%
- Percent decrease in tumour volume relative to control ([2]; 0.1 Microg/mouse IP twice weekly, Day 15): 59%
- Percent decrease in tumour volume relative to control ([2]; 1 Microg/mouse IP twice weekly, Day 8): 67%
- Percent decrease in tumour volume relative to control ([2]; 1 Microg/mouse IP twice weekly, Day 12): 32%
- Percent decrease in tumour volume relative to control ([2]; 1 Microg/mouse IP twice weekly, Day 15): 38%
- Percent decrease in tumour volume relative to control ([2]; 10 Microg/mouse IP twice weekly, Day 8): 63%
- Percent decrease in tumour volume relative to control ([2]; 10 Microg/mouse IP twice weekly, Day 12): 54%
- Percent decrease in tumour volume relative to control ([2]; 10 Microg/mouse IP twice weekly, Day 15): 27%
- histology of the tumours ([2]; both models (SM-322 and CUC-5)): non bleeding ulcerous destruction of the centre of tumours
- activity in increasing activated macrophages relative to HEP1 (activated macrophages; 1.0 microgram peptide/mouse): significantly more active than HEP1
- Activated macrophages as a percent of total number of cells (activated macrophages; 1.0 microgram peptide/mouse injected abdominally, after 24 hours, saline 1.9): 13.9%
- activity relative to HEP1 ([3]; PBMC activation, thymidine incorporation): significantly more active than HEP1; also recorded: ten fold higher activity than HEP1
- concentration of peak activity ([3]; PBMC proliferation): around 3 nanograms/ml
- incorporation of 3H thymidine ([3]; Peptide 0.0001 micro g/ml): 563 radioactive counts per minute
- incorporation of 3H thymidine ([3]; Peptide 0.0003 micro g/ml): 742 radioactive counts per minute
- incorporation of 3H thymidine ([3]; Peptide 0.001 micro g/ml): 976 radioactive counts per minute
- incorporation of 3H thymidine ([3]; Peptide 0.003 micro g/ml): 3222 radioactive counts per minute
- incorporation of 3H thymidine ([3]; Peptide 0.01 micro g/ml): 656 radioactive counts per minute
- incorporation of 3H thymidine ([3]; Peptide 0.03 micro g/ml): 539 radioactive counts per minute
- incorporation of 3H thymidine ([3]; Peptide 0.1 micro g/ml): 533 radioactive counts per minute
- incorporation of 3H thymidine ([3]; Peptide 0.3 micro g/ml): 611 radioactive counts per minute
- incorporation of 3H thymidine ([3]; Peptide 1 micro g/ml): 472 radioactive counts per minute
- incorporation of 3H thymidine ([3]; Peptide 3 micro g/ml): 455 radioactive counts per minute
- incorporation of 3H thymidine ([3]; Peptide 10 micro g/ml): 405 radioactive counts per minute
- IL-8 concentration in culture (IL-8; Rupe312 0.001 micrograms/ml): 13900 picrograms/ml
- IL-8 concentration in culture (IL-8; Rupe312 0.003 micrograms/ml): 10700 picrograms/ml
- IL-8 concentration in culture (IL-8; Rupe312 0.01 micrograms/ml): 8984 picrograms/ml
- IL-8 concentration in culture (IL-8; Rupe312 0.03 micrograms/ml): 7869 picrograms/ml
- IL-8 concentration in culture (IL-8; Rupe312 0.1 micrograms/ml): 6426 picrograms/ml
- Days of life expectancy ([4]; 0.1 Microg/mouse IP twice weekly): 12 to 22 days
- Days of life expectancy ([4]; 1 Microg/mouse IP twice weekly): 12 to 19 days
- Days of life expectancy ([4]; 10 Microg/mouse IP twice weekly): 12 to 27 days
